From article PMC8800111 (The Journal of Biological Chemistry, 2021)

Experiments:
Type in all cases: cell-based
[1] = target: proteins of U3A human fibrosarcoma cells (4462 proteins detected) (Homo sapiens, UniProt Q15041); conditions: protein ARL6IP1; U3A cells
[2] = target: proteins of U3A human fibrosarcoma cells (4462 proteins detected) (Homo sapiens, UniProt P00374); conditions: 10 μM, 2 h
[3] = target: proteins of U3A human fibrosarcoma cells (4462 proteins detected) (Homo sapiens, UniProt Q16891); conditions: protein IMMT; U3A cells
[4] = target: proteins of U3A human fibrosarcoma cells (4462 proteins detected) (Homo sapiens, UniProt Q96QG7); conditions: protein MTMR9; soluble abundance after heat, U3A cells
[5] = target: proteins of U3A human fibrosarcoma cells (4462 proteins detected) (Homo sapiens, UniProt P35244); conditions: protein RPA3; soluble abundance after heat, U3A cells
Sequence of proteins of U3A human fibrosarcoma cells (4462 proteins detected) (Homo sapiens, UniProt P35244) (P35244 whole entry): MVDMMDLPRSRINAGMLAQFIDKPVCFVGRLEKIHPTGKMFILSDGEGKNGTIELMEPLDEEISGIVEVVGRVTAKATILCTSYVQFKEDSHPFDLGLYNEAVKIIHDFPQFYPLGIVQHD

[6] = target: proteins of U3A human fibrosarcoma cells (4462 proteins detected) (Homo sapiens, UniProt P08670); conditions: protein VIM; U3A cells
Sequence of proteins of U3A human fibrosarcoma cells (4462 proteins detected) (Homo sapiens, UniProt P08670) (P08670 whole entry): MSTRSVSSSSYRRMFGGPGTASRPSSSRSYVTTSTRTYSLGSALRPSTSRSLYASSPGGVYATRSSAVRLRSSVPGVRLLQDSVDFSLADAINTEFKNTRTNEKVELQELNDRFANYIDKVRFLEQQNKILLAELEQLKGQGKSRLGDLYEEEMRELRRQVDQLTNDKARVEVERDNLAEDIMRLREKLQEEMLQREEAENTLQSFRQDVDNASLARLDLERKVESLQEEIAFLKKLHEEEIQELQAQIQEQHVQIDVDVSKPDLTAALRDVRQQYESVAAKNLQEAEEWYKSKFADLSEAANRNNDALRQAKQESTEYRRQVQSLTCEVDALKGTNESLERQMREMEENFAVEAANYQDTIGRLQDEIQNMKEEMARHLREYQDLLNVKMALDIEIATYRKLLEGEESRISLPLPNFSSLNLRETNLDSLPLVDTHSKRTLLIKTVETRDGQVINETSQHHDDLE

[7] = target: proteins of U3A human fibrosarcoma cells (4462 proteins detected) (Homo sapiens, UniProt Q96TA2); conditions: protein YME1L1; U3A cells
Sequence of proteins of U3A human fibrosarcoma cells (4462 proteins detected) (Homo sapiens, UniProt Q96TA2) (Q96TA2 whole entry): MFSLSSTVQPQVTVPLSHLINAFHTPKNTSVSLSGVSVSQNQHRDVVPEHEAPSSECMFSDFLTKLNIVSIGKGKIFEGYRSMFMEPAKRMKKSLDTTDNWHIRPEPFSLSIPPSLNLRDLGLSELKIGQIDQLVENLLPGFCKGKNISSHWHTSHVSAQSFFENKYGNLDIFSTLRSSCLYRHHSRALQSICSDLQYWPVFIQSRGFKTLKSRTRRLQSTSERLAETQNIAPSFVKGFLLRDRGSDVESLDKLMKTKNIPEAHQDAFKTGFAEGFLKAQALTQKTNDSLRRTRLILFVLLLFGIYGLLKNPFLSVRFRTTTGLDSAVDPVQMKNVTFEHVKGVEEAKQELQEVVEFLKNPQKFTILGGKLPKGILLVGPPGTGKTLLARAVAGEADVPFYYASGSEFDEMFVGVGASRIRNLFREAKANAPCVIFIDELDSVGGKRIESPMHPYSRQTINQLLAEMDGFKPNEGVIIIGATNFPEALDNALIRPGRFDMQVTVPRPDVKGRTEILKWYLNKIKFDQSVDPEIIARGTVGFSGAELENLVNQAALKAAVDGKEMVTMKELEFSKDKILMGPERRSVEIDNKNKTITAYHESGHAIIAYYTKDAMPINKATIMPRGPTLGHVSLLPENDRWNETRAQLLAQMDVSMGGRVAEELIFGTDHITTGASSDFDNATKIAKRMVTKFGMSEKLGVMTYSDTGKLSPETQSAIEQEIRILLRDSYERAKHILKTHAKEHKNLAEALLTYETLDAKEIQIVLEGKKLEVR

[8] = target: proteins of U3A human fibrosarcoma cells (4462 proteins detected) (Homo sapiens, UniProt Q9HB71); conditions: protein CACYBP; U3A cells
Sequence of proteins of U3A human fibrosarcoma cells (4462 proteins detected) (Homo sapiens, UniProt Q9HB71) (Q9HB71 whole entry): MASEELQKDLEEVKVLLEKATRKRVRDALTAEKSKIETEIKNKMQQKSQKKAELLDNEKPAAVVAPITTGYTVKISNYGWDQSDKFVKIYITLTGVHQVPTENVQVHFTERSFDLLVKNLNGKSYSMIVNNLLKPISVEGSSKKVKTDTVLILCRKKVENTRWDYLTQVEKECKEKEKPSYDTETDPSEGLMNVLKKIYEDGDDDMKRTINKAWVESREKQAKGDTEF

[9] = target: proteins of U3A human fibrosarcoma cells (4462 proteins detected) (Homo sapiens, UniProt Q9NRL2); conditions: protein BAZ1A; U3A cells
[10] = target: proteins of U3A human fibrosarcoma cells (4462 proteins detected) (Homo sapiens, UniProt Q8IWX8); conditions: protein CHERP; soluble abundance after heat, U3A cells
[11] = target: proteins of U3A human fibrosarcoma cells (4462 proteins detected) (Homo sapiens, UniProt Q9BQG0); conditions: protein MYBBP1A; U3A, 10 μM, 2 h
[12] = target: proteins of U3A human fibrosarcoma cells (4462 proteins detected) (Homo sapiens, UniProt Q7Z5L2); conditions: protein R3HCC1L; U3A, 10 μM, 2 h
Sequence of proteins of U3A human fibrosarcoma cells (4462 proteins detected) (Homo sapiens, UniProt Q7Z5L2) (Q7Z5L2 whole entry): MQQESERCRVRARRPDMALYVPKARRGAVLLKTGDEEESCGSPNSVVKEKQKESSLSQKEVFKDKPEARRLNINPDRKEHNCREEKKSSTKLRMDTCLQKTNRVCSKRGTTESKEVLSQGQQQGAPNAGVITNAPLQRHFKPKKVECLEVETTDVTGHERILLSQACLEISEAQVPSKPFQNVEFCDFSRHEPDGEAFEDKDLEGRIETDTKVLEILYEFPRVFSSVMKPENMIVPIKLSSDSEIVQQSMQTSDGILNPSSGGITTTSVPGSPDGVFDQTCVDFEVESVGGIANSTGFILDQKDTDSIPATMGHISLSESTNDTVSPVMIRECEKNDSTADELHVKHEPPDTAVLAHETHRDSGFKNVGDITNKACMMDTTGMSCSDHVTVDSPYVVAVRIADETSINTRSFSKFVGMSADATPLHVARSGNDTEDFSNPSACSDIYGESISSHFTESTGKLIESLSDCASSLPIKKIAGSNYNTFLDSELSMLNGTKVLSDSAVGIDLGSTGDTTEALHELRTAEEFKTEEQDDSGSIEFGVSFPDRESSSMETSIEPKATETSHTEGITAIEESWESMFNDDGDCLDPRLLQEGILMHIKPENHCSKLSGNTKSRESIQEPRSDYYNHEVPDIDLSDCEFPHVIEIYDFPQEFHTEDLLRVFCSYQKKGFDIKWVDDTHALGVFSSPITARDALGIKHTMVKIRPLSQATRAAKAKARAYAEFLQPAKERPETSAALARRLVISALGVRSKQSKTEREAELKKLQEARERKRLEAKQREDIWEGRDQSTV

[13] = target: proteins of U3A human fibrosarcoma cells (4462 proteins detected) (Homo sapiens, UniProt Q8TBF4); conditions: protein ZCRB1; soluble abundance after heat, U3A cells
[14] = target: proteins of U3A human fibrosarcoma cells (4462 proteins detected) (Homo sapiens, UniProt Q8N129); conditions: protein CNPY4, U3A cells
Sequence of proteins of U3A human fibrosarcoma cells (4462 proteins detected) (Homo sapiens, UniProt Q8N129) (Q8N129 22-248): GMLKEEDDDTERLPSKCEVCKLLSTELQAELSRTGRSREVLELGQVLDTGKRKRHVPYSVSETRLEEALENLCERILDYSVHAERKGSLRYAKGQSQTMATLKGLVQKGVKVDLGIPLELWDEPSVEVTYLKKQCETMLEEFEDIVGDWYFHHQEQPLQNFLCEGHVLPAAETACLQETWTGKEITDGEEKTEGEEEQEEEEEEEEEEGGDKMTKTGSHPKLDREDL

[15] = target: proteins of U3A human fibrosarcoma cells (4462 proteins detected) (Homo sapiens, UniProt P30419); conditions: protein NMT1, U3A cells
[16] = target: proteins of U3A human fibrosarcoma cells (4462 proteins detected) (Homo sapiens, UniProt O00159); conditions: protein MYO1C, U3A cells
Sequence of proteins of U3A human fibrosarcoma cells (4462 proteins detected) (Homo sapiens, UniProt O00159) (O00159 whole entry): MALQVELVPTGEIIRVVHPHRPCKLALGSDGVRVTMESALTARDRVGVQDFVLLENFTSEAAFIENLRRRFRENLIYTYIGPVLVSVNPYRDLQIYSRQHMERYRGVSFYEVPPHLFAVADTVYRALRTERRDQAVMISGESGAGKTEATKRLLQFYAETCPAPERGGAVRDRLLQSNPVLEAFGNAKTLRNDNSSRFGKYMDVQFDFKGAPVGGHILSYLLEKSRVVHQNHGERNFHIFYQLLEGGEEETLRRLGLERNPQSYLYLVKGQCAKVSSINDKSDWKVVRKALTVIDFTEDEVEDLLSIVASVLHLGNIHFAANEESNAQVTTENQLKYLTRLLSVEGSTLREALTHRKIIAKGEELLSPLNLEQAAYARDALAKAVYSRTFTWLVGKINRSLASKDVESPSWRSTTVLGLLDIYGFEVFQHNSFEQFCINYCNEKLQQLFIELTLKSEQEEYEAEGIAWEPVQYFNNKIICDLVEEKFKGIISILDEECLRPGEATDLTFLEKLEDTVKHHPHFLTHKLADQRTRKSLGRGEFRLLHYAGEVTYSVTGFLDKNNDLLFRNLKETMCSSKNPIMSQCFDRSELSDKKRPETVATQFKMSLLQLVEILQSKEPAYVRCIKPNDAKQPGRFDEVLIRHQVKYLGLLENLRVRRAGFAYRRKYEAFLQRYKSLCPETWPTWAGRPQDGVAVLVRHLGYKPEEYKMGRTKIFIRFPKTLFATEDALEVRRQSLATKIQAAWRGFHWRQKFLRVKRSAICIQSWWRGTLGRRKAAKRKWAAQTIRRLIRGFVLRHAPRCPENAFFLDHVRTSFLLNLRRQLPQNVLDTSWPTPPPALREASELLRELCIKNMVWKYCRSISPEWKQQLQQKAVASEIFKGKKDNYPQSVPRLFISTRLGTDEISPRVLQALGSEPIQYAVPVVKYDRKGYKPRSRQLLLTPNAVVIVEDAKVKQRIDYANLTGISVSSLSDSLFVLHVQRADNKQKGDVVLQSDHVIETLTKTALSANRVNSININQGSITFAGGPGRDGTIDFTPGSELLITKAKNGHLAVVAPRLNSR

[17] = target: proteins of U3A human fibrosarcoma cells (4462 proteins detected) (Homo sapiens, UniProt Q96DM3); conditions: protein C18orf8; U3A cells
Sequence of proteins of U3A human fibrosarcoma cells (4462 proteins detected) (Homo sapiens, UniProt Q96DM3) (Q96DM3 whole entry): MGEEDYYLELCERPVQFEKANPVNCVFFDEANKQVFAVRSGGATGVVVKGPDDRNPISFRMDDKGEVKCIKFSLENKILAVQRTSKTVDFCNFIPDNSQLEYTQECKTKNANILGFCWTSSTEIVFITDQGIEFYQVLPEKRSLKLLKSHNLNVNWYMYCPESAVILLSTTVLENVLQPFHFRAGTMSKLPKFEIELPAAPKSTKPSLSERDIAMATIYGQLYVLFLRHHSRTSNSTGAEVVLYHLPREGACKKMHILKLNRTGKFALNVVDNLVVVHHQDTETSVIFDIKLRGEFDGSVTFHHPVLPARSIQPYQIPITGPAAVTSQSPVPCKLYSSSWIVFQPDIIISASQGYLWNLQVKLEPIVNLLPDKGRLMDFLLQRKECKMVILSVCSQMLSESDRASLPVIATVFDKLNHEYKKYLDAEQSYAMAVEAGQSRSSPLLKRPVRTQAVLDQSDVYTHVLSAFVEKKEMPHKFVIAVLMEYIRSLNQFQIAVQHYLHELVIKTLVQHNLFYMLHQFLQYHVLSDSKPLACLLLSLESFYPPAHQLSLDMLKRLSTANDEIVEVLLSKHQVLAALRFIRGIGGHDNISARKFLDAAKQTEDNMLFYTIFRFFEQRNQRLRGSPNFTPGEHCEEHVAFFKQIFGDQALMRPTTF

[18] = target: proteins of U3A human fibrosarcoma cells (4462 proteins detected) (Homo sapiens, UniProt O14976); conditions: protein GAK; U3A, 10 μM, 2 h
[19] = target: proteins of U3A human fibrosarcoma cells (4462 proteins detected) (Homo sapiens, UniProt P78317); conditions: protein RNF4, U3A cells
[20] = target: proteins of U3A human fibrosarcoma cells (4462 proteins detected) (Homo sapiens, UniProt Q9NYJ1); conditions: protein COA4; U3A cells
[21] = target: proteins of U3A human fibrosarcoma cells (4462 proteins detected) (Homo sapiens, UniProt P14649); conditions: protein MYL6B, U3A cells
Sequence of proteins of U3A human fibrosarcoma cells (4462 proteins detected) (Homo sapiens, UniProt P14649) (P14649 whole entry): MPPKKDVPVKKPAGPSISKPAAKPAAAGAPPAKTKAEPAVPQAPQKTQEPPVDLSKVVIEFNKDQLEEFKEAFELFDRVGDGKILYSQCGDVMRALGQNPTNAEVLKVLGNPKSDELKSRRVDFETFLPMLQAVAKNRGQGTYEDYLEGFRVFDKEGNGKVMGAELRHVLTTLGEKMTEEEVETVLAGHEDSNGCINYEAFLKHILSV

[22] = target: proteins of U3A human fibrosarcoma cells (4462 proteins detected) (Homo sapiens, UniProt Q9NYY8); conditions: protein FASTKD2; U3A cells
[23] = target: proteins of U3A human fibrosarcoma cells (4462 proteins detected) (Homo sapiens, UniProt P23528); conditions: protein CFL1, U3A cells
[24] = target: proteins of U3A human fibrosarcoma cells (4462 proteins detected) (Homo sapiens, UniProt Q8IVL6); conditions: protein LEPREL2; soluble abundance after heat, U3A cells
[25] = target: proteins of U3A human fibrosarcoma cells (4462 proteins detected) (Homo sapiens, UniProt Q53FT3); conditions: protein C11orf73; U3A, 10 μM, 2 h
Sequence of proteins of U3A human fibrosarcoma cells (4462 proteins detected) (Homo sapiens, UniProt Q53FT3) (Q53FT3 whole entry): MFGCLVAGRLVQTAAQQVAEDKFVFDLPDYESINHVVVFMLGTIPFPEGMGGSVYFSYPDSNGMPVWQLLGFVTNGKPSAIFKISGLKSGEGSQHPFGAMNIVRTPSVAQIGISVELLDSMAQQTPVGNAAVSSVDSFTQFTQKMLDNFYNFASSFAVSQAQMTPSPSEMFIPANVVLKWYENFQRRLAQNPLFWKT

[26] = target: proteins of U3A human fibrosarcoma cells (4462 proteins detected) (Homo sapiens, UniProt P49207); conditions: protein RPL34; U3A cells
[27] = target: proteins of U3A human fibrosarcoma cells (4462 proteins detected) (Homo sapiens, UniProt Q9BYN8); conditions: protein MRPS26; soluble abundance after heat, U3A cells
[28] = target: proteins of U3A human fibrosarcoma cells (4462 proteins detected) (Homo sapiens, UniProt Q08623); conditions: protein HDHD1, U3A cells
[29] = target: proteins of U3A human fibrosarcoma cells (4462 proteins detected) (Homo sapiens, UniProt Q8WTT2); conditions: protein NOC3L; U3A cells

Sequence of proteins of U3A human fibrosarcoma cells (4462 proteins detected) (Homo sapiens, UniProt P00374) (P00374 whole entry): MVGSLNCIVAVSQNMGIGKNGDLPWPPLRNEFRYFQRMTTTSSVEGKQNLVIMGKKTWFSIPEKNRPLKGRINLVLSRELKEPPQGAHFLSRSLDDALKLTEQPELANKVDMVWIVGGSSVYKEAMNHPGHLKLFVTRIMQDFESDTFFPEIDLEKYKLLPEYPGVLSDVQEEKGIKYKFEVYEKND

Compound: CCc1nc(N)nc(N)c1-c1ccc(Cl)cc1 [pyrimethamine]
- Log2 (PYR/DMSO) [1]: 0.17
- increased abundance of DHFR in the soluble fraction ([2]; U3A cells, vs vehicle): 1.7 fold
- Log2 (PYR/DMSO), DHFR ([2]; protein DHFR, U3A): 0.80
- Log2 (PYR/DMSO) [3]: 0.19
- Log2 (PYR/DMSO) [4]: 0.15
- Log2 (PYR/DMSO) [5]: 0.13
- Log2 (PYR/DMSO) [6]: 0.17
- Log2 (PYR/DMSO) [7]: 0.16
- Log2 (PYR/DMSO) [8]: 0.19
- Log2 (PYR/DMSO) [9]: 0.19
- Log2 (PYR/DMSO) [10]: 0.14
- Log2 (PYR/DMSO), MYBBP1A [11]: 0.26
- Log2 (PYR/DMSO), R3HCC1L [12]: -0.20
- Log2 (PYR/DMSO) [13]: 0.14
- Log2 (PYR/DMSO) [14]: -0.04
- Log2 (PYR/DMSO) [15]: -0.05
- Log2 (PYR/DMSO) [16]: -0.03
- Log2 (PYR/DMSO) [17]: 0.17
- Log2 (PYR/DMSO), GAK [18]: -0.20
- Log2 (PYR/DMSO) [19]: -0.04
- Log2 (PYR/DMSO) [20]: 0.18
- Log2 (PYR/DMSO) [21]: -0.04
- Log2 (PYR/DMSO) [22]: 0.21
- Log2 (PYR/DMSO) [23]: -0.04
- Log2 (PYR/DMSO) [24]: 0.14
- Log2 (PYR/DMSO), C11orf73 [25]: 0.28
- Log2 (PYR/DMSO) [26]: 0.21
- Log2 (PYR/DMSO) [27]: 0.14
- Log2 (PYR/DMSO) [28]: -0.04
- Log2 (PYR/DMSO) [29]: 0.16
